Measured values as given in patent publication US10201531B2, “Indazolyl-oxo-isothiazole compounds” (MOCHIDA PHARMACEUTICAL CO., LTD., priority 2015, dated 2019).

System: Nrf2
Experiment: Evaluation of Nrf2 activation ability (Nrf2d-LacZ / Keap1 HEK293 reporter, Beta-Glo luminescence)
Assay type: cell-based, human
Details: Pharmacological Test Example 1, rated A/B/C
How it was run: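 HEK293 cells stably expressing a human Nrf2 degron–LacZ fusion plus human Keap1 were exposed to compound for 3 h at 37° C. Reporter β-galactosidase was read by Beta-Glo luminescence after 1 h at RT. Activation is given as % of the signal with 100 nM CDDO-Im.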

Row | Structure (SMILES) | EC50
1 | CCOC(=O)C1CC=C(c2c(C)nn(-c3cc(O)n[s+]3[O-])c2C)CC1 (centres unmarked) [Example 317] | 1000 to 5000 nM
2 | [O-][s+]1nc(O)cc1-n1cc(/C=C/c2ccccc2)cn1 (centres unmarked) [Example 318] | 1000 to 5000 nM
3 | [O-][s+]1nc(O)cc1-n1cc(-c2ccc(N3CCCCC3)nc2)cn1 (centres unmarked) [Example 321] | 1000 to 5000 nM
4 | [O-][s+]1nc(O)cc1-n1cc(-c2ccc(N3CCCC3)nc2)cn1 (centres unmarked) [Example 322] | 1000 to 5000 nM
5 | [O-][s+]1nc(O)cc1-n1cc(-c2ccc(C3CC3)nc2)cn1 (centres unmarked) [Example 323] | < 1000 nM
6 | COC(=O)C1(c2ccc(-c3cnn(-c4cc(O)n[s+]4[O-])c3)cc2)CC1 (centres unmarked) [Example 324] | < 1000 nM
7 | [O-][s+]1nc(O)cc1-n1cc(-c2cccc(-c3ccccc3)c2)cn1 (centres unmarked) [Example 326] | < 1000 nM
8 | [O-][s+]1nc(O)cc1-n1cc(-c2ccc(-c3ccccc3)cc2)cn1 (centres unmarked) [Example 327] | 1000 to 5000 nM
9 | [O-][s+]1nc(O)cc1-n1cc(-c2ccccc2-c2ccccc2)cn1 (centres unmarked) [Example 328] | 1000 to 5000 nM
10 | [O-][s+]1nc(O)cc1-n1cc(CCOc2ccccc2)cn1 (centres unmarked) [Example 329] | 1000 to 5000 nM
11 | COC(=O)c1ccccc1-c1cnn(-c2cc(O)n[s+]2[O-])c1 (centres unmarked) [Example 330] | 1000 to 5000 nM
12 | [O-][s+]1nc(O)cc1-n1cc(-c2ccc(Oc3ccccc3)cc2)cn1 (centres unmarked) [Example 333] | < 1000 nM
13 | [O-][s+]1nc(O)cc1-n1cc(-c2ccccc2Oc2ccccc2)cn1 (centres unmarked) [Example 335] | 1000 to 5000 nM
14 | Cc1cccc(C)c1-c1cccc(COc2ccc(-c3cnn(-c4cc(O)n[s+]4[O-])c3)cc2)c1 (centres unmarked) [Example 338] | 1000 to 5000 nM
15 | Cc1cc(OCCCS(C)(=O)=O)cc(C)c1-c1cccc(COc2ccc(-c3cnn(-c4cc(O)n[s+]4[O-])c3)cc2)c1 (centres unmarked) [Example 339] | 1000 to 5000 nM
16 | [O-][s+]1nc(O)cc1-n1cc(-c2ccc3ccccc3c2)cn1 (centres unmarked) [Example 340] | < 1000 nM
17 | [O-][s+]1nc(O)cc1-n1cc(-c2cccc3ccccc23)cn1 (centres unmarked) [Example 341] | 1000 to 5000 nM
18 | [O-][s+]1nc(O)cc1-n1cc(-c2ccc3c(c2)CCCC3)cn1 (centres unmarked) [Example 342] | < 1000 nM
19 | [O-][s+]1nc(O)cc1-n1cc(-c2cccc3cnccc23)cn1 (centres unmarked) [Example 343] | 1000 to 5000 nM
20 | [O-][s+]1nc(O)cc1-n1cc(-c2cccc3cccnc23)cn1 (centres unmarked) [Example 344] | < 1000 nM
21 | [O-][s+]1nc(O)cc1-n1cc(C2=Cc3ccccc3C2)cn1 (centres unmarked) [Example 345] | < 1000 nM
22 | [O-][s+]1nc(O)cc1-n1cc(-c2ccc3c(c2)OCCO3)cn1 (centres unmarked) [Example 346] | 1000 to 5000 nM
23 | CN1CCOc2cc(-c3cnn(-c4cc(O)n[s+]4[O-])c3)ccc21 (centres unmarked) [Example 347] | < 1000 nM
24 | [O-][s+]1nc(O)cc1-n1cc(C2=Cc3ccccc3CC2)cn1 (centres unmarked) [Example 349] | < 1000 nM
25 | [O-][s+]1nc(O)cc1-n1cc(-c2ccc3ncccc3c2)cn1 (centres unmarked) [Example 350] | < 1000 nM

Row | Structure (SMILES) | EC50
26 | [O-][s+]1nc(O)cc1-n1cc(-c2ccc3ccncc3c2)cn1 (centres unmarked) [Example 351] | 1000 to 5000 nM
27 | Cn1ccc2c(-c3cnn(-c4cc(O)n[s+]4[O-])c3)cccc21 (centres unmarked) [Example 352] | < 1000 nM
28 | Cn1ccc2ccc(-c3cnn(-c4cc(O)n[s+]4[O-])c3)cc21 (centres unmarked) [Example 353] | < 1000 nM
29 | Cc1nc2cc(-c3cnn(-c4cc(O)n[s+]4[O-])c3)ccc2s1 (centres unmarked) [Example 354] | < 1000 nM
30 | [O-][s+]1nc(O)cc1-n1cc(-c2cccc3ncccc23)cn1 (centres unmarked) [Example 355] | 1000 to 5000 nM
31 | [O-][s+]1nc(O)cc1-n1cc(-c2ccc3cnccc3c2)cn1 (centres unmarked) [Example 356] | 1000 to 5000 nM
32 | [O-][s+]1nc(O)cc1-n1cc(-c2ccc3cccnc3c2)cn1 (centres unmarked) [Example 357] | < 1000 nM
33 | Cn1ncc2c(-c3cnn(-c4cc(O)n[s+]4[O-])c3)cccc21 (centres unmarked) [Example 360] | < 1000 nM
34 | N#Cc1ccc(Oc2ccc(-c3cnn(-c4cc(O)n[s+]4[O-])c3)cc2)cc1 (centres unmarked) [Example 362] | < 1000 nM
35 | [O-][s+]1nc(O)cc1-n1cc(-c2ccccc2)cn1 (centres unmarked) [Example 363] | < 1000 nM
36 | O=S(=O)(c1cccc(COc2ccc(-c3cnn(-c4cc(O)n[s+]4[O-])c3)cc2)c1)N1CCCCC1 (centres unmarked) [Example 366] | 1000 to 5000 nM
37 | [O-][s+]1nc(O)cc1-n1cc(-c2cccc(C(F)(F)F)c2)cn1 (centres unmarked) [Example 367] | < 1000 nM
38 | [O-][s+]1nc(O)cc1-n1cc(-c2cc(C(F)(F)F)cc(C(F)(F)F)c2)cn1 (centres unmarked) [Example 368] | < 1000 nM
39 | N#CC1(c2ccc(-c3cnn(-c4cc(O)n[s+]4[O-])c3)cc2)CC1 (centres unmarked) [Example 369] | 1000 to 5000 nM
40 | O=C(Cc1ccc(-c2cnn(-c3cc(O)n[s+]3[O-])c2)cc1)N1CCc2ccccc21 (centres unmarked) [Example 373] | 5000 to 10000 nM
41 | [O-][s+]1nc(O)cc1-n1cc(-c2ccc(Oc3ccc(C(F)(F)F)cc3Cl)cc2)cn1 (centres unmarked) [Example 374] | 1000 to 5000 nM
42 | [O-][s+]1nc(O)cc1-n1cc(-c2ccc(OCc3cccc(C(F)(F)F)c3)cc2)cn1 (centres unmarked) [Example 375] | 1000 to 5000 nM
43 | Cc1cccc(C)c1COc1ccc(-c2cnn(-c3cc(O)n[s+]3[O-])c2)cc1 (centres unmarked) [Example 376] | 1000 to 5000 nM
44 | [O-][s+]1nc(O)cc1-n1cc(-c2ccc(Oc3ccccc3)cc2)cn1 (centres unmarked) [Example 377] | < 1000 nM
45 | [O-][s+]1nc(O)cc1-n1cc(-c2ccc(Oc3ccccc3)cc2)cn1 (centres unmarked) [Example 378] | < 1000 nM
46 | [O-][s+]1nc(O)cc1-n1cc(C2=Cc3ccccc3CC2)cn1 (centres unmarked) [Example 381] | < 1000 nM
47 | [O-][s+]1nc(O)cc1-n1cc(-c2cccc3cccnc23)cn1 (centres unmarked) [Example 382] | < 1000 nM
48 | [O-][s+]1nc(O)cc1-n1cc(-c2ccc3cccnc3c2)cn1 (centres unmarked) [Example 383] | < 1000 nM
49 | [O-][s+]1nc(O)cc1-n1cc(C2=Cc3ccccc3C2)cn1 (centres unmarked) [Example 384] | < 1000 nM
50 | [O-][s+]1nc(O)cc1-n1cc(-c2ccccn2)cn1 (centres unmarked) [Example 386] | 1000 to 5000 nM

Now from value to molecule:

Row | EC50 | Structure (SMILES)
51 | < 1000 nM | COc1ccccc1-c1cnn(-c2cc(O)n[s+]2[O-])c1 (centres unmarked) [Example 387]
52 | < 1000 nM | COc1cccc(-c2cnn(-c3cc(O)n[s+]3[O-])c2)c1 (centres unmarked) [Example 388]
53 | < 1000 nM | COc1ccc(-c2cnn(-c3cc(O)n[s+]3[O-])c2)cc1 (centres unmarked) [Example 389]
54 | 1000 to 5000 nM | COc1cc(-c2cnn(-c3cc(O)n[s+]3[O-])c2)cc(OC)c1OC (centres unmarked) [Example 390]
55 | < 1000 nM | COc1ccc(-c2cnn(-c3cc(O)n[s+]3[O-])c2)cn1 (centres unmarked) [Example 392]
56 | < 1000 nM | COc1ncccc1-c1cnn(-c2cc(O)n[s+]2[O-])c1 (centres unmarked) [Example 393]
57 | 1000 to 5000 nM | [O-][s+]1nc(O)cc1-n1cc(C2=Cc3ccccc3C2)cn1 (centres unmarked) [Example 394]
58 | 1000 to 5000 nM | [O-][s+]1nc(O)cc1-n1cc(-c2cccnc2C(F)(F)F)cn1 (centres unmarked) [Example 395]
59 | 1000 to 5000 nM | [O-][s+]1nc(O)cc1-n1cc(-c2ccc(C(F)(F)F)nc2)cn1 (centres unmarked) [Example 396]
60 | < 1000 nM | [O-][s+]1nc(O)cc1-n1cc(C2Cc3ccccc3C2)cn1 (centres unmarked) [Example 397]
61 | 1000 to 5000 nM | COc1cncc(-c2cnn(-c3cc(O)n[s+]3[O-])c2)c1 (centres unmarked) [Example 398]
62 | < 1000 nM | COc1ccc(-c2cnn(-c3cc(O)n[s+]3[O-])c2)c(OC)n1 (centres unmarked) [Example 399]
63 | 1000 to 5000 nM | CNc1ccc(-c2cnn(-c3cc(O)n[s+]3[O-])c2)cn1 (centres unmarked) [Example 400]
64 | 5000 to 10000 nM | Cc1cncc(-c2cnn(-c3cc(O)n[s+]3[O-])c2)c1 (centres unmarked) [Example 401]
65 | 1000 to 5000 nM | COc1ccc(-c2cnn(-c3cc(O)n[s+]3[O-])c2)c(C)n1 (centres unmarked) [Example 402]
66 | < 1000 nM | COc1cc(-c2cnn(-c3cc(O)n[s+]3[O-])c2)ccn1 (centres unmarked) [Example 404]
67 | 1000 to 5000 nM | CN(C)Cc1ccc(-c2cnn(-c3cc(O)n[s+]3[O-])c2)cc1 (centres unmarked) [Example 405]
68 | 5000 to 10000 nM | CN(C)Cc1cccc(-c2cnn(-c3cc(O)n[s+]3[O-])c2)c1 (centres unmarked) [Example 406]
69 | 1000 to 5000 nM | [O-][s+]1nc(O)cc1-n1cc(-c2cnccn2)cn1 (centres unmarked) [Example 407]
70 | < 1000 nM | [O-][s+]1nc(O)cc1-n1cc(-c2cnc3ccccc3n2)cn1 (centres unmarked) [Example 408]

Row | EC50 | Structure (SMILES)
71 | 1000 to 5000 nM | [O-][s+]1nc(O)cc1-n1cc(CCOc2cccnc2)cn1 (centres unmarked) [Example 412]
72 | 1000 to 5000 nM | Cc1cnc(-c2cnn(-c3cc(O)n[s+]3[O-])c2)cn1 (centres unmarked) [Example 413]
73 | < 1000 nM | [O-][s+]1nc(O)cc1-n1cc(-c2cnc(C3CC3)cn2)cn1 (centres unmarked) [Example 414]
74 | 1000 to 5000 nM | [O-][s+]1nc(O)cc1-n1cc(-c2cnc(C(F)(F)F)cn2)cn1 (centres unmarked) [Example 415]
75 | 1000 to 5000 nM | Cc1cncc(-c2cnn(-c3cc(O)n[s+]3[O-])c2)n1 (centres unmarked) [Example 416]
76 | 1000 to 5000 nM | [O-][s+]1nc(O)cc1-n1cc2cc(-c3cnccn3)ccc2n1 (centres unmarked) [Example 417]
77 | 1000 to 5000 nM | Cn1c(=O)n(-c2cnn(-c3cc(O)n[s+]3[O-])c2)c2ccccc21 (centres unmarked) [Example 419]
78 | 1000 to 5000 nM | CC1(C)C(=O)N(c2cnn(-c3cc(O)n[s+]3[O-])c2)c2ccccc21 (centres unmarked) [Example 420]
79 | 1000 to 5000 nM | Cc1cnc(-c2cnn(-c3cc(O)n[s+]3[O-])c2)c(C)n1 (centres unmarked) [Example 421]
80 | 5000 to 10000 nM | [O-][s+]1nc(O)cc1-n1cc(-n2cccn2)cn1 (centres unmarked) [Example 422]
81 | 1000 to 5000 nM | [O-][s+]1nc(O)cc1-n1cc(-c2ncccn2)cn1 (centres unmarked) [Example 423]
82 | 5000 to 10000 nM | Cn1c(=O)oc2cc(-c3cnn(-c4cc(O)n[s+]4[O-])c3)ccc21 (centres unmarked) [Example 424]
83 | 1000 to 5000 nM | CN1C(=O)C(C)(C)c2cc(-c3cnn(-c4cc(O)n[s+]4[O-])c3)ccc21 (centres unmarked) [Example 425]
84 | 5000 to 10000 nM | [O-][s+]1nc(O)cc1-n1cc(-c2cnccn2)cn1 (centres unmarked) [Example 428]
85 | 1000 to 5000 nM | O=c1oc2cc(-c3cnn(-c4cc(O)n[s+]4[O-])c3)ccc2n1CC1CC1 (centres unmarked) [Example 429]
86 | 1000 to 5000 nM | CC1(C)C(=O)N(CC2CC2)c2ccc(-c3cnn(-c4cc(O)n[s+]4[O-])c3)cc21 (centres unmarked) [Example 430]
87 | 1000 to 5000 nM | Cc1ccnc(-c2cnn(-c3cc(O)n[s+]3[O-])c2)n1 (centres unmarked) [Example 433]
88 | < 1000 nM | COc1nc(Cl)ccc1-c1cnn(-c2cc(O)n[s+]2[O-])c1 (centres unmarked) [Example 435]
89 | < 1000 nM | [O-][s+]1nc(O)cc1-n1cc(C#Cc2ccc(Cl)nc2)cn1 (centres unmarked) [Example 436]
